# Reference: patent US20050192314A1, “Urea derivatives as C-kit modulators” (Ambit Biosciences Corporation, priority 2003, published 2005)
# pIC50, pKd: −log10 of the molar value.
# Key:
# [1] = molecular target: T1, KIT(DKIN) (Homo sapiens, UniProt P10721); assay: Binding constant (Kd) measurement, phage-displayed kinase competition binding assay: KIT(DKIN)
# T1 construct: KIT(DKIN); made in house
# Excerpt: (§1) The term “ND” represents non-determined values.
# [2] = molecular target: T2, KIT(JMminus) (Homo sapiens, UniProt P10721); assay: Binding constant (Kd) measurement, phage-displayed kinase competition binding assay: KIT(JMminus)
# T2 construct: KIT(JMminus); made in house
# Excerpt: as §1
# [3] = molecular target: T3, MKNK2(DKIN) (Homo sapiens, UniProt Q9HBH9); assay: Binding constant (Kd) measurement, phage-displayed kinase competition binding assay: MKNK2(DKIN)
# T3 construct: MKNK2(DKIN); made in house
# Excerpt: as §1
# [4] = molecular target: T4, KIT(JMminus,D816V) (Homo sapiens, UniProt P10721, D816V); assay: Binding constant (Kd) measurement, phage-displayed kinase competition binding assay: KIT(JMminus,D816V)
# T4 construct: KIT(JMminus,D816V); made in house
# Excerpt: as §1
# [5] = molecular target: T5, KIT(JMplus,V559D) (Homo sapiens, UniProt P10721, V559D); assay: Binding constant (Kd) measurement, phage-displayed kinase competition binding assay: KIT(JMplus,V559D)
# T5 construct: KIT(JMplus); made in house
# Excerpt: as §1
# [6] = molecular target: KIT(JMplus) (Homo sapiens, UniProt P10721); assay: Binding constant (Kd) measurement, phage-displayed kinase competition binding assay: KIT(JMplus)
# Excerpt: The components of the assays include human kinases expressed as fusions to T7 bacteriophage particles and immobilized ligands that bind to the ATP site of the kinases. […] If the test compound binds the kinase it competes with the immobilized ligand and prevents binding to the solid support. […] The results are read out by quantitating the amount of fusion protein bound to the solid support, which is accomplished by either traditional phage plaque assays or by quantitative PCR (qPCR) using the phage genome as a template.
# [7] = tested on: CS0001; assay: Cell Assay: CS0001:IC50; type: cell-based
# T4 sequence (P10721 589-937 D816V limits assumed): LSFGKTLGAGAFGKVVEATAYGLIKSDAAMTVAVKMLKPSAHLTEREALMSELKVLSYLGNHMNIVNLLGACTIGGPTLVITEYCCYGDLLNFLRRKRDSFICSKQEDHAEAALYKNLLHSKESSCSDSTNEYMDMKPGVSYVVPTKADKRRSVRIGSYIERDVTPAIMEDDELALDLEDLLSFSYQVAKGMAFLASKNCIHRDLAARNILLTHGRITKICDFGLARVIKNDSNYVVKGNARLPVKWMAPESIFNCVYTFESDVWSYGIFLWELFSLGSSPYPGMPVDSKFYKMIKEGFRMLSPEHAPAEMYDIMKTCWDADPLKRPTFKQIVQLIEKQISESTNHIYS
# T2 sequence (P10721 589-937 limits assumed): as the sequence (P10721 589-937 D816V limits assumed) above, with V228D counted along it
# T1 sequence (P10721 589-937 limits assumed): as the sequence (P10721 589-937 D816V limits assumed) above, with V228D counted along it
# T3 sequence (Q9HBH9 84-388 limits assumed): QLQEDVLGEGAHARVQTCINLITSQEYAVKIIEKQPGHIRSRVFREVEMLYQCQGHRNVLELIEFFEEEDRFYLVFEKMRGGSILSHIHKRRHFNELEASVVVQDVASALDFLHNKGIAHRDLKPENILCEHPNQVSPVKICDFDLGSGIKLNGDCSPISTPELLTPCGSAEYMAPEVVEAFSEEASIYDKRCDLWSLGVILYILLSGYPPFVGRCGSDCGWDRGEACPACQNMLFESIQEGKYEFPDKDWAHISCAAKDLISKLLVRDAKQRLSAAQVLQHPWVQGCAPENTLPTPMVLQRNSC
# T5 sequence (P10721 546-976 V559D limits assumed): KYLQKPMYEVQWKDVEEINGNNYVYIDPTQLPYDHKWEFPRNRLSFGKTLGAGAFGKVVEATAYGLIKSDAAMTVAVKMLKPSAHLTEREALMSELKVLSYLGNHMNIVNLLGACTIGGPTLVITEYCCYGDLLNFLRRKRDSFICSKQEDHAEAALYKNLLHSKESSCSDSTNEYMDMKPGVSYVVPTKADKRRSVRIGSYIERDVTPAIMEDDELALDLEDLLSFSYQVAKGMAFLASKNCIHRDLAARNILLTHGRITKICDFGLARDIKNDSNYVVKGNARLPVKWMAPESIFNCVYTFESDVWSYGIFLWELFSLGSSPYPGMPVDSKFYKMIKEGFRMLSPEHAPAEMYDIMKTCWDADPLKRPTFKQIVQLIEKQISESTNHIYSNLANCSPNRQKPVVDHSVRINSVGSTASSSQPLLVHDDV
# KIT(JMplus), sequence (P10721 546-976 limits assumed): as the sequence (P10721 546-976 V559D limits assumed) above, with D14V counted along it
pKd [1],pKd [2],SMILES,further results
> 7.00,> 7.00,CC(C)(C)c1cc(NC(=O)Nc2ccc(OCC3CC3)cc2)no1 [Compound G37],pKd [3]: 6.00 to 7.00; pKd [4]: 5.00 to 6.00
,> 7.00,COc1cc2ncnc(Nc3ccc(NC(=O)Nc4cc(C(C)(C)C)on4)cc3)c2cc1OC [Compound O5],pKd [4]: > 7.00; pKd [5]: > 7.00
,> 7.00,CC(C)(C)c1cc(NC(=O)Nc2ccc(NC(=O)c3cc4ccccc4[nH]3)cc2)no1 [Compound N161],pKd [4]: 5.00 to 6.00
> 7.00,> 7.00,Cc1cnc(C(=O)Nc2ccc(NC(=O)Nc3cc(C(C)(C)C)on3)cc2)cn1 [Compound O2],
> 7.00,> 7.00,CC(C)(C)c1cc(NC(=O)Nc2ccc(NC(=O)c3cc4ccccc4cn3)cc2)no1 [Compound N106],
6.00 to 7.00,> 7.00,CC(C)(C)c1cc(NC(=O)Nc2ccc(NC(=O)c3ccc4sccc4c3)cc2)no1 [Compound N122],
> 7.00,> 7.00,CC(C)(C)c1cc(NC(=O)Nc2ccc(NC(=O)c3ncccc3O)cc2)no1 [Compound N134],pKd [4]: 6.00 to 7.00; pKd [6]: > 7.00
> 7.00,> 7.00,CC(C)(C)c1cc(NC(=O)Nc2ccc(NC(=O)c3ccc4ccccc4n3)cc2)no1 [Compound N143],
6.00 to 7.00,> 7.00,Cc1nc(N)cc(Nc2ccc(NC(=O)Nc3cc(C(C)(C)C)on3)cc2)n1 [Compound O10],
6.00 to 7.00,> 7.00,Cc1ccc(C(=O)Nc2ccc(NC(=O)Nc3cc(C(C)(C)C)on3)cc2)cc1 [Compound N92],
> 7.00,> 7.00,"CC(C)(C)c1cc(NC(=O)Nc2ccc(OCCCc3ccncc3)cc2)no1 [Compound G1, 1-(4-(3-(pyridin-4-yl)propoxy)phenyl)-3-(5-tert-butylisoxazol-3-yl)urea]",
> 7.00,> 7.00,CC(C)(C)c1cc(NC(=O)Nc2ccc(Nc3nc(Cl)nc4[nH]cnc34)cc2)no1 [Compound O4],
,> 7.00,C=N/C(=N\C)Oc1cccc(C(=O)Nc2ccc(NC(=O)Nc3cc(C(C)(C)C)on3)cc2)c1 [Compound N74],pKd [3]: 6.00 to 7.00; pKd [4]: 6.00 to 7.00
,> 7.00,CC(C)(C)c1cc(NC(=O)Nc2ccc(N3C(=O)c4ccccc4C3=O)cc2)no1 [Compound A57],pKd [4]: 5.00 to 6.00
,,CC(C)(C)c1cnc(CSc2cnc(NC(=O)Nc3ccon3)s2)o1,pIC50 [7]: > 7.00
,> 7.00,CC(=O)Oc1cccnc1C(=O)Nc1ccc(NC(=O)Nc2cc(C(C)(C)C)on2)cc1 [Compound N79],pKd [4]: 6.00 to 7.00
,> 7.00,Cc1nc(-c2ccccc2)sc1C(=O)Nc1ccc(NC(=O)Nc2cc(C(C)(C)C)on2)cc1 [Compound N181],
,> 7.00,CC(C)(C)c1cc(NC(=O)Nc2ccc(NC(=O)C3=Cc4cc(F)cc(S(C)(=O)=O)c4C3)cc2)no1 [Compound N62],
> 7.00,> 7.00,CC(C)(C)c1cc(NC(=O)Nc2ccc(NC(=O)c3ccc4ccncc4n3)cc2)no1 [Compound N110],
,,CC(C)(C)c1cc(NC(=O)Nc2ccc(C(=O)/C=C/c3ccncc3)cc2)no1,pIC50 [7]: 6.00 to 7.00
,> 7.00,COc1cc(OC)nc(C2CCCCC2C(=O)Nc2ccc(NC(=O)Nc3cc(C(C)(C)C)on3)cc2)n1 (stereo not shown) [Compound N129],

pKd [1],pKd [2],SMILES,further results
> 7.00,,Cc1[nH]c(C(=O)Nc2ccc(NC(=O)Nc3cc(C(C)(C)C)on3)cc2)c(C)c1CCC(=O)O [Compound N39],pKd [4]: 6.00 to 7.00
,6.00 to 7.00,CC(C)(C)c1cc(NC(=O)Nc2ccc(NC(=O)c3nnsc3Cc3ccc(Cl)cc3)cc2)no1 [Compound N71],
6.00 to 7.00,> 7.00,Cc1nc(-c2ccc(C(=O)Nc3ccc(NC(=O)Nc4cc(C(C)(C)C)on4)cc3)s2)cs1 [Compound N173],
,6.00 to 7.00,CC(C)c1nnsc1C(=O)Nc1ccc(NC(=O)Nc2cc(C(C)(C)C)on2)cc1 [Compound N182],
> 7.00,,CC(C)(C)c1cc(NC(=O)Nc2ccc(Nc3ncnc4[nH]cnc34)cc2)no1 [Compound O3],pKd [4]: > 7.00
,6.00 to 7.00,CC(C)(C)c1cc(NC(=O)Nc2ccc(NC(=O)c3cc4cccnc4nc3C(F)(F)F)cc2)no1 [Compound N61],
> 7.00,> 7.00,CC(C)(C)c1cc(NC(=O)Nc2ccc(NC(=O)c3cn4nc(Cl)ccc4n3)cc2)no1 [Compound N9],
,> 7.00,CC(C)(C)c1cc(NC(=O)Nc2ccc(NC(=O)c3cscn3)cc2)no1 [Compound N57],
> 7.00,> 7.00,CC(C)(C)c1cc(NC(=O)Nc2ccc(NC(=O)c3ccccn3)cc2)no1 [Compound N188],pKd [4]: 6.00 to 7.00; pKd [6]: > 7.00
,> 7.00,Cc1ccc2[nH]c(C(=O)Nc3ccc(NC(=O)Nc4cc(C(C)(C)C)on4)cc3)cc2c1 [Compound N127],pKd [4]: 5.00 to 6.00
,> 7.00,CC(C)(C)c1cc(NC(=O)Nc2ccc(NC(=O)c3cc(Br)cn(Cc4ccccc4)c3=O)cc2)no1 [Compound N67],
,> 7.00,CC(C)(C)c1cc(NC(=O)Nc2ccc(C(=O)Nc3nccnc3N)cc2)no1 [Compound N157],pKd [3]: 6.00 to 7.00; pKd [4]: 5.00 to 6.00
6.00 to 7.00,> 7.00,CC(C)(C)c1cc(NC(=O)Nc2ccc(NC(=O)/C=C/c3ccccc3Cl)cc2)no1 [Compound N40],
,6.00 to 7.00,CC(C)(C)c1cc(NC(=O)Nc2ccc3c(c2)OCO3)no1 [Compound A56],
,> 7.00,Cc1ccc(-c2nc(C(=O)Nc3ccc(NC(=O)Nc4cc(C(C)(C)C)on4)cc3)cs2)cc1 [Compound N178],
,> 7.00,Cc1nc(-c2ccc(Cl)cc2)sc1C(=O)Nc1ccc(NC(=O)Nc2cc(C(C)(C)C)on2)cc1 [Compound N184],
,> 7.00,Cn1nc(C(F)(F)F)c(C(=O)Nc2ccc(NC(=O)Nc3cc(C(C)(C)C)on3)cc2)c1Cl [Compound N68],
> 7.00,> 7.00,CC(C)(C)c1cc(NC(=O)Nc2ccc(NC(=O)c3cccc(Cl)n3)cc2)no1 [Compound N4],
,> 7.00,COc1cc(C(=O)Nc2ccc(NC(=O)Nc3cc(C(C)(C)C)on3)cc2)nc(OC)n1 [Compound N162],
,> 7.00,Cc1cc(NC(=O)c2cn3nc(Cl)ccc3n2)ccc1NC(=O)Nc1cc(C(C)(C)C)on1 [Compound N169],
> 7.00,> 7.00,Cc1cccnc1C(=O)Nc1ccc(NC(=O)Nc2cc(C(C)(C)C)on2)cc1 [Compound N41],

pKd [1],pKd [2],SMILES,further results
6.00 to 7.00,> 7.00,"COc1cc2nc(Cl)nc(Nc3ccc(NC(=O)Nc4cc(C(C)(C)C)on4)cc3)c2cc1OC [Compound O1, 1-(4-(2-chloro-6,7-dimethoxyquinazolin-4-ylamino)phenyl)-3-(5-tert-butylisoxazol-3-yl)urea]",pKd [4]: 5.00 to 6.00; pKd [5]: > 7.00
,> 7.00,CC(C)(C)c1cc(NC(=O)Nc2ccc(Nc3cc(N)nc(N)n3)cc2)no1 [Compound O7],
,> 7.00,CC(C)(C)c1cc(NC(=O)Nc2ccc(NC(=O)c3cccnc3C(=O)O)cc2)no1 [Compound N165],
,6.00 to 7.00,COc1cc(OC)nc(Oc2ccccc2C(=O)Nc2ccc(NC(=O)Nc3cc(C(C)(C)C)on3)cc2)n1 [Compound N70],
,> 7.00,CC(C)(C)c1cc(NC(=O)Nc2ccc(NC(=O)c3ccc(Oc4ccnc(C(=O)O)c4)cc3)cc2)no1 [Compound N166],
,> 7.00,COc1ccnc(Nc2ccc(C(=O)Nc3ccc(NC(=O)Nc4cc(C(C)(C)C)on4)cc3)cc2)n1 [Compound N51],
> 7.00,> 7.00,CC(C)(C)c1cc(NC(=O)Nc2ccc(NC(=O)c3cccc(F)n3)cc2)no1 [Compound N8],
6.00 to 7.00,> 7.00,"CC(C)(C)c1cc(NC(=O)Nc2ccc(OCc3ccccc3F)cc2)no1 [Compound G12, 1-(4-(2-fluorobenzyloxy)phenyl)-3-(5-tert-butylisoxazol-3-yl)urea]",pKd [4]: 5.00 to 6.00
6.00 to 7.00,> 7.00,Cc1ccc2sc(C(=O)Nc3ccc(NC(=O)Nc4cc(C(C)(C)C)on4)cc3)cc2c1 [Compound N133],
> 7.00,> 7.00,CC(C)(C)c1cc(NC(=O)Nc2ccc(NC(=O)c3ccc4ccccc4c3)cc2)no1 [Compound N28],
,6.00 to 7.00,COc1cc(NC(=O)CCC(=O)N2CCNC(=O)CC2)ccc1NC(=O)Nc1cc(C(C)(C)C)on1 [Compound N172],
,> 7.00,CC(C)(C)c1cc(NC(=O)Nc2ccc(NC(=O)c3cccc[n+]3[O-])cc2)no1 [Compound N81],
5.00 to 6.00,5.00 to 6.00,CC(C)(C)c1cc(NC(=O)Nc2ccc(NC(=O)c3cc(Cl)nnc3Cl)cc2)no1 [Compound N174],
,> 7.00,CC(C)(C)c1cc(C(=O)Nc2ccc(NC(=O)Nc3cc(C(C)(C)C)on3)cc2)n(-c2ccccc2)n1 [Compound N78],
,6.00 to 7.00,COc1cc(OC)nc(Oc2cccnc2C(=O)Nc2ccc(NC(=O)Nc3cc(C(C)(C)C)on3)cc2)n1 [Compound N56],
,> 7.00,CC(C)(C)c1cc(NC(=O)Nc2ccc(NC(=O)c3cc4cccc5c4n(c3=O)CC5)cc2)no1 [Compound N60],
,> 7.00,CC(C)(C)c1cc(NC(=O)Nc2ccc(NC(=O)c3sccc3OCc3cccc(C(F)(F)F)c3)cc2)no1 [Compound N183],
,> 7.00,CC(C)(C)c1cc(NC(=O)Nc2ccc(NC(=O)c3cc(-c4ccc(O)cc4)cs3)cc2)no1 [Compound N77],
> 7.00,> 7.00,Cc1cccc(C(=O)Nc2ccc(NC(=O)Nc3cc(C(C)(C)C)on3)cc2)n1 [Compound N121],
